Data set [1] addresses Metallo-beta-lactamase type 2 (Bacteria, UniProt C7C422). Kind of data set: Inhibition of his6-tagged NDM-1 (unknown origin) expressed in Escherichia coli BL21-DE3 incubated for 16 hrs.
Data set [2] can be described thus: Inhibition of his6-tagged SFH-1 (unknown origin) expressed in Escherichia coli BL21-DE3 incubated for 16 hrs. Details: species or system Enzyme.
Data set [3] can be described thus: Inhibition of his6-tagged L1 (unknown origin) expressed in Escherichia coli BL21-DE3 incubated for 16 hrs. Details: species or system Enzyme inhibition.
A short description of data set [4]: Inhibition of his6-tagged IMP-1 (unknown origin) expressed in Escherichia coli BL21-DE3 incubated for 16 hrs. Also on record: species or system Bacteria.
Data set [5] can be described thus: Inhibition of his6-tagged VIM-2 (unknown origin) expressed in Escherichia coli BL21-DE3 incubated for 16 hrs.
In data set [6] the test system is L929. Kind of data set: Cytotoxicity against mouse L929 cells assessed as reduction in cell viability at 100 microg/ml incubated for 24 hrs by MTT assay. The class given is toxicity, cell-based. Conditions: l929, 24 h.
The nature of data set [7]: Stability in human plasma assessed as half life by HPLC analysis. The class given is ADME, cell-free.
For data set [8], the target named is Metallo-beta-lactamase type 2 (Bacteria) (UniProt C7C422). In words: Inhibition of full length NDM-1 (unknown origin) expressed in Escherichia DH5alpha at 100 microg/ml measured at 1 to 5 hrs. Conditions: dose 100.0 µg/ml, time 1-5 hrs.
Data set [9] relates to Klebsiella pneumoniae. Kind of data set: Potentiation of meropenem induced antibacterial activity against Klebsiella pneumoniae LC82 expressing IMP-13 assessed as meropenem MIC by CLSI based broth microdilution method. In kind it is functional. Background: In broth dilution the organism is exposed to a series of concentrations in liquid medium.
Data set [10] concerns Klebsiella pneumoniae. Kind of data set: Potentiation of meropenem induced antibacterial activity against Klebsiella pneumoniae 6907 expressing VIM-2 assessed as meropenem MIC by CLSI based broth microdilution method. The class given is functional.
Data set [11] relates to Klebsiella pneumoniae. Kind of data set: Potentiation of meropenem induced antibacterial activity against Klebsiella pneumoniae 5639 expressing VIM-24 assessed as meropenem MIC by CLSI based broth microdilution method. In kind it is functional.
Data set [12] relates to Klebsiella pneumoniae. In words: Potentiation of meropenem induced antibacterial activity against Klebsiella pneumoniae 1.37 expressing NDM-1 assessed as meropenem MIC by CLSI based broth microdilution method. The class given is functional.
Data set [13] concerns Klebsiella pneumoniae. Kind of data set: Potentiation of meropenem induced antibacterial activity against Klebsiella pneumoniae 7.15 expressing NDM-1 assessed as meropenem MIC by CLSI based broth microdilution method. The class given is functional.
Data set [14] deals with Klebsiella pneumoniae. In words: Potentiation of meropenem induced antibacterial activity against Klebsiella pneumoniae 1.41 expressing NDM-1 assessed as meropenem MIC by CLSI based broth microdilution method. The class given is functional.
The subject of data set [15] is Enterobacter cloacae. In words: Potentiation of meropenem induced antibacterial activity against Enterobacter cloacae 6.31 expressing NDM-1 assessed as meropenem MIC by CLSI based broth microdilution method. In kind it is functional.
In data set [16] the test system is Enterobacter cloacae. In words: Potentiation of meropenem induced antibacterial activity against Enterobacter cloacae 1.28 expressing NDM-1 assessed as meropenem MIC by CLSI based broth microdilution method. The class given is functional.
The subject of data set [17] is Escherichia coli. In words: Potentiation of meropenem induced antibacterial activity against Escherichia coli 3.68 expressing NDM-1 assessed as meropenem MIC by CLSI based broth microdilution method. In kind it is functional.
Data set [18] relates to Providencia rettgeri. Kind of data set: Potentiation of meropenem induced antibacterial activity against Providencia rettgeri 1.27 expressing NDM-1 assessed as meropenem MIC by CLSI based broth microdilution method. In kind it is functional.
Data set [19] relates to Klebsiella pneumoniae. Kind of data set: Antibacterial activity against Klebsiella pneumoniae LC82 assessed as inhibition of bacterial growth by CLSI based broth microdilution method. The class given is functional.
Data set [20] relates to Klebsiella pneumoniae. Kind of data set: Antibacterial activity against Klebsiella pneumoniae 6907 assessed as inhibition of bacterial growth by CLSI based broth microdilution method. In kind it is functional.
In data set [21] the test system is Klebsiella pneumoniae. Kind of data set: Antibacterial activity against Klebsiella pneumoniae 5639 assessed as inhibition of bacterial growth by CLSI based broth microdilution method. In kind it is functional.
Data set [22] relates to Klebsiella pneumoniae. In words: Antibacterial activity against Klebsiella pneumoniae 1.37 assessed as inhibition of bacterial growth by CLSI based broth microdilution method. In kind it is functional.
Data set [23] has as its system Klebsiella pneumoniae. Kind of data set: Antibacterial activity against Klebsiella pneumoniae 7.15 assessed as inhibition of bacterial growth by CLSI based broth microdilution method. In kind it is functional.
Data set [24] has as its system Klebsiella pneumoniae. In words: Antibacterial activity against Klebsiella pneumoniae 1.41 assessed as inhibition of bacterial growth by CLSI based broth microdilution method. In kind it is functional.
The subject of data set [25] is Enterobacter cloacae. In words: Antibacterial activity against Enterobacter cloacae 6.31 assessed as inhibition of bacterial growth by CLSI based broth microdilution method. The class given is functional.
For data set [26], the system named is Enterobacter cloacae. Kind of data set: Antibacterial activity against Enterobacter cloacae 1.28 assessed as inhibition of bacterial growth by CLSI based broth microdilution method. In kind it is functional.
The test system of data set [27] is Providencia rettgeri. In words: Antibacterial activity against Providencia rettgeri 1.27 assessed as inhibition of bacterial growth by CLSI based broth microdilution method. In kind it is functional.

The term IC50 denotes the midpoint of a concentration-inhibition curve. Usually MIC stands for the smallest concentration in the dilution series that meets the test's criterion for growth inhibition.

In brackets after ≈: the same amount, converted by molar mass. Activity calls are given as the source filed them.

Metallo-beta-lactamase type 2, sequence (C7C422 whole entry): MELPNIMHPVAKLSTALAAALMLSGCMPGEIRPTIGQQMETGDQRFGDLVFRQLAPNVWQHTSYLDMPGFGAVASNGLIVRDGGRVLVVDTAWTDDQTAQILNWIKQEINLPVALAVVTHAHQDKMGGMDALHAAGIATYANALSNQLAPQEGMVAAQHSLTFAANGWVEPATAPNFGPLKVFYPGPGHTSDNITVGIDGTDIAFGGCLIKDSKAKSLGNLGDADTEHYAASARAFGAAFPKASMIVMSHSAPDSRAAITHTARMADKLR
Metallo-beta-lactamase type 2 (Bacteria), sequence (C7C422 whole entry): as above

With `O=C(Nc1ccccc1)[C@@H]1CS[C@H]2CS[C@H](CS)N21`, the results for the IC50 in [1], in data set [2] and in data set [3] (read-out: IC50) were 20 µM, “Not Active” and 15 µM, respectively.
Taken in the same sequence, the figures for `Nc1ccccc1NC(=O)[C@@H]1CS[C@H]2CS[C@H](CS)N21` were 29 µM, “Not Active” and 32 µM.
`O=C(O)[C@@H]1CS[C@H]2CS[C@H](CCS)N21`: the 50% inhibitory concentration (IC50) is 3.1 µM in data set [1]; “Not Active” in data set [4]; “Not Active” in [5]; “Not Active” in data set [2]; 12 µM in data set [3] (read-out: IC50).
For `SC[C@H]1SC[C@@H]2Nc3ccccc3N21` (relative stereo), the IC50 worked out at 1.01 µM in data set [4] (read-out: IC50), 1.4 µM in data set [5] (read-out: IC50), 3.7 µM in [2] (read-out: IC50) and 0.62 µM in data set [3] (read-out: IC50). Further, in [6] (at 100 µg/mL), the Activity is given as 20%. In addition, in data set [7], the t1/2 was determined as 2.45 h.
Regarding `CCOC(=O)[C@@H]1CS[C@H]2CS[C@H](CS)N21`, the IC50 came to 2.7 µM in data set [1]; 0.26 µM in [4] (read-out: IC50); 0.17 µM in data set [5] (read-out: IC50); 5.5 µM in data set [2] (read-out: IC50); 6.9 µM in [3] (read-out: IC50).
For `COc1ccc(CNC(=O)[C@@H]2CS[C@H]3CS[C@H](CS)N32)cc1`, the values for the half-inhibitory concentration (IC50) in data set [1], in data set [2] and in [3] (read-out: IC50) were 52 µM, “Not Active” and 24 µM, respectively.
In the case of `O=C(O)[C@@H]1CS[C@H]2CS[C@H](CS)N21`, the concentration for half-maximal inhibition (IC50) amounted to 13 µM in data set [1]; 17.3 µM in data set [4] (read-out: IC50); 8.5 µM in data set [5] (read-out: IC50); 0.79 µM in data set [2] (read-out: IC50); 22 µM in data set [3] (read-out: IC50). Further, the t1/2 in data set [7] came out at 0.383 h.
With `Nc1nc(COC(=O)[C@@H]2CS[C@H]3CS[C@H](CS)N32)cs1`, the half-inhibitory concentration (IC50) in data set [1] was 27 µM; in data set [2], “Not Active”; in [3] (read-out: IC50), 30 µM.
Turning to `CCOC(=O)[C@]12CS[C@H](CS)N1[C@H](C(=O)O)CS2`, the half-maximal inhibitory concentration (IC50) in data set [1] is 13 µM; in [4], “Not Active”; in data set [5] it was “Not Active”; in data set [2], “Not Active”; in data set [3], “Not Active”.
Turning to `O=C(NCc1ccccc1)[C@@H]1CS[C@H]2CS[C@H](CS)N21`, the concentration for half-maximal inhibition (IC50) in data set [1] was 7.7 µM; in [2] it was “Not Active”; in [3] (read-out: IC50), 8.9 µM.
For `SCC[C@H]1SC[C@@H]2SCCN21` (racemic), the IC50 in data set [1] came out at 8.3 µM; in [4] (read-out: IC50) it was 5.8 µM; in data set [5] (read-out: IC50) it was 1.2 µM; in data set [2] (read-out: IC50), 55 µM; in data set [3] (read-out: IC50), 7.8 µM.
The corresponding values for `SC[C@H]1SC[C@@H]2SCCN21` (racemic) are 1.2 µM, 1.09 µM, 0.88 µM, 7.5 µM and 4.9 µM.
As to `NCCOC(=O)[C@@H]1CS[C@H]2CS[C@H](CS)N21`, the IC50 in [1] is 53 µM; in data set [2] it was “Not Active”; in data set [3] (read-out: IC50), 58 µM.
For the molecule `SC[C@H]1SC[C@@H]2Sc3ccccc3N21` (racemic), the half-inhibitory concentration (IC50) was determined as 0.29 µM in [1]; 0.088 µM in data set [4] (read-out: IC50); 0.063 µM in data set [5] (read-out: IC50); 1.4 µM in [2] (read-out: IC50); 0.67 µM in data set [3] (read-out: IC50). For the same molecule, the Activity entry in data set [6] (dose 100 µg/ml) is given as “Non-Toxic”. The t1/2 in data set [7] was found to be 2.62 h. Moreover, the inhibition result in data set [8] is “Active”. The minimum inhibitory concentration (MIC) in data set [9] was found to be 0.125 mg/L; in data set [10], 0.125 mg/L; in data set [11] it was 0.125 mg/L; in data set [12] it was 16 mg/L; in data set [13], 32 mg/L; in [14], 8 mg/L. Besides, the MIC stood at 16 mg/L in data set [15], 8 mg/L in [16], 32 mg/L in data set [17] and 32 mg/L in data set [18].
Take `CC(C)(C)OC(=O)NCCOC(=O)[C@@H]1CS[C@H]2CS[C@H](CS)N21`: the IC50 in data set [1] is 7.9 µM; in [2], “Not Active”; in data set [3] (read-out: IC50), 5.4 µM.
With `C[C@@H](O)[C@H]1C(=O)N2C(C(=O)O)=C(S[C@@H]3CN[C@H](C(=O)N(C)C)C3)[C@H](C)[C@H]12` [MEROPENEM], the MIC in [19] is 1 mg/L (≈ 2.61 µM); in [20], 8 mg/L (≈ 20.9 µM); in [21], 4 mg/L (≈ 10.4 µM); in data set [22], 64 mg/L (≈ 167 µM); in data set [23], 128 mg/L (≈ 334 µM); in data set [24], 128 mg/L (≈ 334 µM). In addition, the values for the MIC in data set [25], in data set [26] and in data set [27] were 54 mg/L (≈ 141 µM), 128 mg/L (≈ 334 µM) and 128 mg/L (≈ 334 µM), respectively.

Values taken from ChEMBL document CHEMBL5518203, “Rational Design of Benzobisheterocycle Metallo-β-Lactamase Inhibitors: A Tricyclic Scaffold Enhances Potency against Target Enzymes” (J Med Chem, 2024).
